Results: EPA's ToxRefDB 2

Assays:
rat [1] = details: Prenatal developmental toxicity study, sprague dawley, Oral, Gavage/Intubation, dose end: 17 GD
dog [2] = details: Sub-acute repeat dose toxicity, beagle, Oral, Gavage/Intubation, dose end: 1 month, group: systemic
dog [3] = details: Chronic toxicity; beagle; Oral; Gavage/Intubation; dose end: 6 month; group: systemic; systemic / hematology / anisocytosis / anisocytosis + systemic / hematology / jolly bodies / jolly bodies + systemic / hematology / myeloid/…
rat [4] = details: Sub-acute repeat dose toxicity, sprague dawley, Oral, Gavage/Intubation, dose end: 28 day, group: systemic
rabbit [5] = details: Prenatal developmental toxicity study; himalayan; Oral; Gavage/Intubation; dose end: 12 GD; group: maternal; systemic / in life observation / body weight / body weight gain + systemic / in life observation / food consumption / food consumption
rat [6] = details: Subchronic oral toxicity in rodents, sprague dawley, Gavage/Intubation, dose end: 13 week, group: systemic
mouse = details: Subchronic oral toxicity in rodents, cd1, Gavage/Intubation, dose end: 13 week, group: systemic
rat [7] = details: Fertility (Segment I), sprague dawley, Oral, Gavage/Intubation, dose end: 6 PND
rabbit [8] = details: Prenatal developmental toxicity study, himalayan, Oral, Gavage/Intubation, dose end: 18 GD, group: maternal
rabbit [9] = details: Prenatal developmental toxicity study, himalayan, Oral, Gavage/Intubation, dose end: 18 GD
dog [10] = details: Chronic toxicity; beagle; Oral; Gavage/Intubation; dose end: 12 month; group: systemic; systemic / hematology / erythrocyte (rbc) count differential / erythrocyte (rbc) + systemic / hematology / hematocrit (hct) / hematocrit (…
rat [11] = details: Chronic toxicity; sprague dawley; Oral; Gavage/Intubation; dose end: 6 month; group: systemic; systemic / clinical chemistry / phosphorus / phosphorus + systemic / clinical chemistry / potassium / potassium + systemic / organ weight / …
dog [12] = details: Chronic toxicity; beagle; Oral; Feed; dose end: 52 week; group: systemic; systemic / hematology / nucleated red blood cell (nrbc) / nucleated red blood cell (nrbc) + systemic / in life observation / clinical signs…
rat [13] = details: Multigenerational reproductive toxicity study, sprague dawley, Oral, Feed, dose end: 2 generation
rat [14] = details: Subchronic oral toxicity in rodents, sprague dawley, Feed, dose end: 90 day, group: systemic
[15] = group: developmental, developmental / developmental malformation / bone / delayed ossification + developmental / developmental malformation / bone / unossified
[16] = group: maternal, systemic / in life observation / body weight / body weight gain + systemic / in life observation / food consumption / food consumption
[17] = group: maternal, systemic / in life observation / body weight / body weight gain + systemic / in life observation / food consumption / food consumption + …
[18] = systemic / hematology / [other] / [other] + systemic / hematology / erythrocyte (rbc) count differential / erythrocyte (rbc) + systemic / …
[19] = systemic / hematology / erythrocyte (rbc) count differential / erythrocyte (rbc) + systemic / hematology / hematocrit (hct) / hematocrit (…
[20] = systemic / clinical chemistry / creatinine / creatinine + systemic / clinical chemistry / glucose / glucose + systemic / clinical chemistry…
[21] = systemic / clinical chemistry / creatinine / creatinine + systemic / clinical chemistry / potassium / potassium + systemic / clinical …
[22] = systemic / clinical chemistry / phosphorus / phosphorus + systemic / clinical chemistry / potassium / potassium + systemic / clinical …
[23] = systemic / clinical chemistry / phosphorus / phosphorus + systemic / clinical chemistry / urea nitrogen / urea nitrogen + systemic / …
[24] = systemic / clinical chemistry / urea nitrogen / urea nitrogen + systemic / hematology / hemoglobin (hgb) / hemoglobin (hgb) + systemic / …
[25] = group: maternal, reproductive / reproductive performance / estrous cycle / corpora lutea + reproductive / reproductive performance / implantations / …
[26] = group: parental, systemic / in life observation / body weight / body weight gain + systemic / in life observation / clinical signs / fur (altered appearance…
[27] = group: parental, systemic / in life observation / body weight / body weight gain + systemic / in life observation / food consumption / food efficiency
[28] = systemic / in life observation / body weight / body weight gain + systemic / in life observation / food consumption / food consumption
[29] = systemic / in life observation / body weight / body weight gain + systemic / in life observation / food consumption / food consumption + …
[30] = group: developmental, developmental / developmental malformation / limb / [other] + systemic / in life observation / body weight / fetal weight
[31] = group: maternal, reproductive / reproductive performance / aborted / aborted + reproductive / reproductive performance / premature delivery / premature …
[32] = group: offspring, systemic / in life observation / body weight / offspring (pup) weight + systemic / pathology gross / heart / enlarged + systemic / pathology…
[33] = group: parental, systemic / in life observation / clinical signs / dental fluorosis
[34] = group: parental, systemic / in life observation / clinical signs / dental fluorosis + systemic / in life observation / clinical signs / teeth whitening
[35] = systemic / clinical chemistry / alanine aminotransferase (alt/sgpt) / alanine aminotransferase (alt/sgpt)
[36] = systemic / pathology gross / stomach / discolored + systemic / pathology gross / stomach / foci + systemic / pathology gross / stomach / …

CC(=O)S[C@H](C(=O)N[C@H]1Cc2ccccc2[C@H]2CCC[C@@H](C(=O)O)N2C1=O)C(C)C [Ilepatril]
LEL (rat [1]; [15]): 300 mg/kg/day
LOAEL (rat [1]; [15]): 300 mg/kg/day
NEL (rat [1]; [15]): 30 mg/kg/day
NOAEL (rat [1]; [15]): 30 mg/kg/day
LEL (rat [1]; [16]): 300 mg/kg/day
LOAEL (rat [1]; [16]): 300 mg/kg/day
NEL (rat [1]; [17]): 30 mg/kg/day
NOAEL (rat [1]; [17]): 30 mg/kg/day
LOAEL (dog [2]; [18]): 50 mg/kg/day
NOAEL (dog [2]; [18]): 10 mg/kg/day
LEL (dog [2]; [19]): 10 mg/kg/day
NEL (dog [2]; [19]): < 10 mg/kg/day
LEL (dog [3]): 30 mg/kg/day
LOAEL (dog [3]): > 30 mg/kg/day
NEL (dog [3]): 10 mg/kg/day
NOAEL (dog [3]): ≥ 30 mg/kg/day
LOAEL (rat [4]; [20]): > 1000 mg/kg/day
NOAEL (rat [4]; [20]): ≥ 1000 mg/kg/day
LEL (rat [4]; [21]): 30 mg/kg/day
NEL (rat [4]; [21]): < 30 mg/kg/day
LEL (rabbit [5]): 0.8 mg/kg/day
LOAEL (rabbit [5]): > 2 mg/kg/day
NEL (rabbit [5]): 0.32 mg/kg/day
NOAEL (rabbit [5]): ≥ 2 mg/kg/day
LOAEL (rat [6]; [22]): > 1600 mg/kg/day
NOAEL (rat [6]; [22]): ≥ 1600 mg/kg/day
LEL (rat [6]; [23]): 400 mg/kg/day
NEL (rat [6]; [23]): < 400 mg/kg/day
LOAEL (mouse; [21]): > 1600 mg/kg/day
NOAEL (mouse; [21]): ≥ 1600 mg/kg/day
LEL (mouse; [24]): 400 mg/kg/day
NEL (mouse; [24]): < 400 mg/kg/day
LEL (rat [7]; [25]): 1000 mg/kg/day
LOAEL (rat [7]; [25]): > 1000 mg/kg/day
NEL (rat [7]; [25]): 100 mg/kg/day
NOAEL (rat [7]; [25]): ≥ 1000 mg/kg/day
LOAEL (rat [7]; [26]): > 1000 mg/kg/day
NOAEL (rat [7]; [26]): ≥ 1000 mg/kg/day
LEL (rat [7]; [27]): 10 mg/kg/day
NEL (rat [7]; [27]): < 10 mg/kg/day
LEL (rabbit [8]; [28]): 0.8 mg/kg/day
LOAEL (rabbit [8]; [28]): 0.8 mg/kg/day
NEL (rabbit [8]; [29]): 0.32 mg/kg/day
NOAEL (rabbit [8]; [29]): 0.32 mg/kg/day
LEL (rabbit [9]; group: developmental, developmental / developmental malformation / limb / [other]): 3.2 mg/kg/day
LOAEL (rabbit [9]; [30]): > 160 mg/kg/day
NEL (rabbit [9]; [30]): 1 mg/kg/day
NOAEL (rabbit [9]; [30]): ≥ 160 mg/kg/day
LOAEL (rabbit [9]; [31]): > 160 mg/kg/day
NOAEL (rabbit [9]; [31]): ≥ 160 mg/kg/day
LEL (rabbit [9]; [16]): 1 mg/kg/day
NEL (rabbit [9]; [16]): < 1 mg/kg/day
LEL (dog [10]): 12 mg/kg/day
LOAEL (dog [10]): > 12 mg/kg/day
NEL (dog [10]): 6 mg/kg/day
NOAEL (dog [10]): ≥ 12 mg/kg/day
LEL (rat [11]): 10 mg/kg/day
LOAEL (rat [11]): > 1000 mg/kg/day
NEL (rat [11]): < 10 mg/kg/day
NOAEL (rat [11]): ≥ 1000 mg/kg/day

[F][Al-3]([F])([F])([F])([F])[F].[Na+].[Na+].[Na+] [Cryolite]
LEL (dog [12]): 95 mg/kg/day
LOAEL (dog [12]): 95 mg/kg/day
NEL (dog [12]): < 95 mg/kg/day
NOAEL (dog [12]): < 95 mg/kg/day
LOAEL (rat [13]; group: offspring, systemic / in life observation / body weight / offspring (pup) weight): 128 mg/kg/day
LEL (rat [13]; [32]): 128 mg/kg/day
NEL (rat [13]; [32]): 42 mg/kg/day
NOAEL (rat [13]; [32]): 42 mg/kg/day
LOAEL (rat [13]; [33]): 14 mg/kg/day
NOAEL (rat [13]; [33]): < 14 mg/kg/day
LEL (rat [13]; [34]): 14 mg/kg/day
NEL (rat [13]; [34]): < 14 mg/kg/day
LEL (rat [14]; [35]): 4.5 mg/kg/day
NEL (rat [14]; [35]): < 4.5 mg/kg/day
LOAEL (rat [14]; [36]): 399 mg/kg/day
NOAEL (rat [14]; [36]): 3.8 mg/kg/day
